Type in all cases: biochemical
The target in test [1] is T1, Itk (Homo sapiens, UniProt Q08881).
T1 sequence (Q08881 1-620): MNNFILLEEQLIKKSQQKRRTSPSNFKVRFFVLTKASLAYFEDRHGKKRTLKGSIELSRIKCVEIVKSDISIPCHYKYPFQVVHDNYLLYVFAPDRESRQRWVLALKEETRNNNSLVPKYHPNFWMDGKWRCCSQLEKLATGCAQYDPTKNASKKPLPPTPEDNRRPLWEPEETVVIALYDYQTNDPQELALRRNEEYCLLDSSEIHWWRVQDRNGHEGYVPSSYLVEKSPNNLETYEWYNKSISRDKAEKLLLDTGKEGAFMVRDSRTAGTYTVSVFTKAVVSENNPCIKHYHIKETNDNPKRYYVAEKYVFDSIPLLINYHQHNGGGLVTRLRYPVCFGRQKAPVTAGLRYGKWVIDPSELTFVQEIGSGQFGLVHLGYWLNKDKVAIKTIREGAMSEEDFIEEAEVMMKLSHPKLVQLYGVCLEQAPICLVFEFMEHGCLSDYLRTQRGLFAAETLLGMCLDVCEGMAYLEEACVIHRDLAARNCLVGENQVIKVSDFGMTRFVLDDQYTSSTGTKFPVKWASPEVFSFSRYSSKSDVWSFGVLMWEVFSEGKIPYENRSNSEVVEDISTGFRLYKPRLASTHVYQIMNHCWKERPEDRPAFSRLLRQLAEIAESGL
Kind of test: Itk inhibition assay, coupled enzyme. The following applies: average Ki if more than one determined. The protocol:
Compounds were screened for their ability to inhibit Itk using a standard coupled enzyme assay (Fox et al., Protein Sci., (1998) 7, 2249). Assays were carried out in a mixture of 20 mM MOPS (pH 7.0), 10 mM MgCl2, 0.1% BSA, 1 mM DTT, 2.5 mM phosphoenolpyruvate, 300 μM NADH, 30 μg/ml pyruvate kinase and 10 μg/ml lactate dehydrogenase. Final substrate concentrations in the assay were 100 μM ATP (Sigma Chemicals) and 3 μM peptide (Biotinylated SAM68 D332-443). Assays were carried out at 25° C. and in the presence of 100 nM Itk.
An assay stock buffer solution was prepared containing all of the reagents listed above, with the exception of ATP and the test compound of interest. 60 μl of the stock solution was placed in a 96 well plate followed by addition of 2 μl of DMSO stock containing serial dilutions of the test compound (typically starting from a final concentration of 15 μM). The plate was preincubated for 10 minutes at 25° C. and the reaction initiated by addition of 5 μl of ATP. Initial reaction rates were determined with a Molecular Devices SpectraMax Plus plate reader over a 10 minute time course. IC50 and Ki data were calculated from non-linear regression analysis using the Prism software package (GraphPad Prism version 3.0cx for Macintosh, GraphPad Software, San Diego Calif., USA).

Test [2] concerns the target ROCK I (AA 6-553) (Homo sapiens, UniProt Q13464). Kind of test: ROCK inhibition assay, coupled enzyme system ("Enzyme"). The following applies: enzyme-linked assay; average Ki if more than one determined. The method, then:
Reactions were carried out in a solution containing 100 mM HEPES (pH 7.5), 10 mM MgCl2, 25 mM NaCl, 2 mM DTT and 1.5% DMSO.
(§1) If more than one value of Ki has been determined, the average Ki is indicated. If no value is indicated, then the Ki was not determined.

For test [3], the target named is PKA (Homo sapiens, UniProt P17612). The test is described as follows: PKA inhibition assay, coupled enzyme. The following applies: average Ki if more than one determined. A digest of the protocol:
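Coupled PK/LDH assay following NADH depletion: 18 nM PKA, 50 μM ATP, 80 μM Kemptide in 100 mM HEPES pH 7.5, 10 mM MgCl2, 25 mM NaCl, 1 mM DTT, 3% DMSO, at 30 °C. Compound preincubated 10 min before ATP start; initial rates over 15 min, IC50 and Ki by non-linear regression.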

The target in test [4] is ROCK (Homo sapiens, UniProt Q13464). Kind of test: ROCK radioactive assay ("33P"). Particulars: radioactive assay; average Ki if more than one determined; read-out: ROCK 33P Ki.
From the text: as §1

Each structure is given as a SMILES string. pKi: −log10 of the molar value.

Chain of ROCK I (AA 6-553) (Q13464 6-553, species assumed): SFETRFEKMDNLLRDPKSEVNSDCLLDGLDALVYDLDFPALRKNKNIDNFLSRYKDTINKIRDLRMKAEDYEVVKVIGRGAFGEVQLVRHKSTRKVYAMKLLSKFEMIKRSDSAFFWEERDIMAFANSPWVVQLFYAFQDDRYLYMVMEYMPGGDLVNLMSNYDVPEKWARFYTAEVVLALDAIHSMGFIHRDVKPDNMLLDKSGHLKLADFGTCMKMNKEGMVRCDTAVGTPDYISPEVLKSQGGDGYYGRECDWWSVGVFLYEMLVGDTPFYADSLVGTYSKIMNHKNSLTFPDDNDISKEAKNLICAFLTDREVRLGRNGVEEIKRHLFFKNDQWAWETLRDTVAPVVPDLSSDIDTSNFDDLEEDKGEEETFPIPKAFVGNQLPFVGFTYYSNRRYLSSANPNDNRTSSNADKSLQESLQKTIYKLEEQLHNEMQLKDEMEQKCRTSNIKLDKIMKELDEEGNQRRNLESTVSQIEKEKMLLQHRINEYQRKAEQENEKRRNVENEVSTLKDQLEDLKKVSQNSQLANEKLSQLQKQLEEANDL
Chain of ROCK (Q13464 whole entry): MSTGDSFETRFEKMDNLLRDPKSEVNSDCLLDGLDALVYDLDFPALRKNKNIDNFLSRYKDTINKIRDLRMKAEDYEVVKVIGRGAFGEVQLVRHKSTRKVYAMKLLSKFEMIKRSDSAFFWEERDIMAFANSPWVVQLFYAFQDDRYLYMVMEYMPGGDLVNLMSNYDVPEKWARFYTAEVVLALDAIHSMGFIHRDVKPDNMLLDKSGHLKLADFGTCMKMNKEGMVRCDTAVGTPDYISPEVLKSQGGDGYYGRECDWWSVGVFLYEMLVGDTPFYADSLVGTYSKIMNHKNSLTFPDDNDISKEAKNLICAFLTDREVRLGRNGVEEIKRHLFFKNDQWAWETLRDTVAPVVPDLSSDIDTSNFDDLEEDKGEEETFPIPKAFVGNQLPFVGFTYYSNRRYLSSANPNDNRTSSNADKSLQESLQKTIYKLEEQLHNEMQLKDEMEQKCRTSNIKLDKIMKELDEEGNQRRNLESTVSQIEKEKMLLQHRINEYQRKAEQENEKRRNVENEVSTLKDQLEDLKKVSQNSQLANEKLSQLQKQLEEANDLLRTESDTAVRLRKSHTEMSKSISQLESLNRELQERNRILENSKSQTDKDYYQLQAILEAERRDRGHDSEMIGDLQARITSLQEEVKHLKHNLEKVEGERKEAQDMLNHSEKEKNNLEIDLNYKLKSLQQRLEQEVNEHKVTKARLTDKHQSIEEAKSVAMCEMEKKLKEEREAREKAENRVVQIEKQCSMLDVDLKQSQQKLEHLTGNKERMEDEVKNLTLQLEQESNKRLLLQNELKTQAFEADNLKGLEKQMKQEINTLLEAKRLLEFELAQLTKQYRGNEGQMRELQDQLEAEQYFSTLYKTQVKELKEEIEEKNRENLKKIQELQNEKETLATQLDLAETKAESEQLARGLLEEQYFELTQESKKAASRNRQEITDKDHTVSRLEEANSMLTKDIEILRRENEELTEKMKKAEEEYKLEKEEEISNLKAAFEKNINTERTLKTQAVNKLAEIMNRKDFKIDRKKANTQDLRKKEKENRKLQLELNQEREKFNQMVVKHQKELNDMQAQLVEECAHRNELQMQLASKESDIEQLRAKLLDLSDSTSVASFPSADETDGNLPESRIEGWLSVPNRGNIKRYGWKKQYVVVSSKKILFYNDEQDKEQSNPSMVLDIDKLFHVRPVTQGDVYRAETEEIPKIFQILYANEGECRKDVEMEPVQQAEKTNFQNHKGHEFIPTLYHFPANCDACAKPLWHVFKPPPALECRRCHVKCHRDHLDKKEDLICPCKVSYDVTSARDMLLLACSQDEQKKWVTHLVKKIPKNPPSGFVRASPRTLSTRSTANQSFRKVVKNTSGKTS

As for `O=C(Cc1ccccc1)N(c1nc(-c2c[nH]c3ncccc23)cs1)C1CC1` [I-20], the values for the pKi in test [1], in test [2] and in test [3] were 5.30 to 6.30, above 6.30 and above 6.30, respectively.

As for `O=C(Cc1ccc(F)cc1)N(c1nc(-c2c[nH]c3ncccc23)cs1)C1CC1` [II-53], the negative-log Ki (pKi) is 5.30 to 6.30 in test [1], above 6.30 in test [2] and above 6.30 in test [3].

Consider `O=C(CCc1ccccc1)N(c1nc(-c2c[nH]c3ncccc23)cs1)C1CC1` [II-54], for which the results for the negative-log Ki (pKi) in test [1], in test [2] and in test [3] were 5.30 to 6.30, above 6.30 and above 6.30, respectively.

`O=C(Cc1ccccc1)Nc1nc(-c2c[nH]c3ncc(Br)cc23)cs1` [II-79]: the pKi in test [1] is 5.30 to 6.30; in test [4], above 6.30; in test [2], above 6.30; in test [3] it was above 6.30.

On to `O=C(CCC1CCCCC1)Nc1nc(-c2c[nH]c3ncc(Br)cc23)cs1` [II-251], for which the values for the pKi in test [1], in test [4] and in test [3] were 5.30 to 6.30, 5.30 to 6.30 and above 6.30, respectively.

As to `O=C(Nc1nc(-c2c[nH]c3ncc(Br)cc23)cs1)C1CCOC1` (stereo not shown) [II-252], the pKi in test [1] is 5.30 to 6.30; in test [4], above 6.30; in test [3] it was 5.30 to 6.30.

As to `O=C(CCS(=O)(=O)c1ccccc1)Nc1nc(-c2c[nH]c3ncc(Br)cc23)cs1` [II-253], the pKi was 5.30 to 6.30 in test [1], 5.30 to 6.30 in test [4] and above 6.30 in test [3].

Take `O=C(CCOc1ccccc1)Nc1nc(-c2c[nH]c3ncc(Br)cc23)cs1` [II-254]: the pKi was 5.30 to 6.30 in test [1], above 6.30 in test [4] and 5.30 to 6.30 in test [3].

Source of the values: US7514448B2, “Azaindoles useful as inhibitors of rock and other protein kinases” (Vertex Pharmaceuticals Incorporated, priority 2004, dated 2009).
